US20110269815A1, “METHODS OF REDUCING CELLULAR PROLIFERATION BY INHIBITING ACSVL3” (THE JOHNS HOPKINS UNIVERSITY, priority 2008, published 2011)

Tests used:
ACSBG2 = target: T1, ACSBG2 (Homo sapiens, UniProt Q5FVE4); settings: cited from earlier work
T1 sequence (Q5FVE4 1-666): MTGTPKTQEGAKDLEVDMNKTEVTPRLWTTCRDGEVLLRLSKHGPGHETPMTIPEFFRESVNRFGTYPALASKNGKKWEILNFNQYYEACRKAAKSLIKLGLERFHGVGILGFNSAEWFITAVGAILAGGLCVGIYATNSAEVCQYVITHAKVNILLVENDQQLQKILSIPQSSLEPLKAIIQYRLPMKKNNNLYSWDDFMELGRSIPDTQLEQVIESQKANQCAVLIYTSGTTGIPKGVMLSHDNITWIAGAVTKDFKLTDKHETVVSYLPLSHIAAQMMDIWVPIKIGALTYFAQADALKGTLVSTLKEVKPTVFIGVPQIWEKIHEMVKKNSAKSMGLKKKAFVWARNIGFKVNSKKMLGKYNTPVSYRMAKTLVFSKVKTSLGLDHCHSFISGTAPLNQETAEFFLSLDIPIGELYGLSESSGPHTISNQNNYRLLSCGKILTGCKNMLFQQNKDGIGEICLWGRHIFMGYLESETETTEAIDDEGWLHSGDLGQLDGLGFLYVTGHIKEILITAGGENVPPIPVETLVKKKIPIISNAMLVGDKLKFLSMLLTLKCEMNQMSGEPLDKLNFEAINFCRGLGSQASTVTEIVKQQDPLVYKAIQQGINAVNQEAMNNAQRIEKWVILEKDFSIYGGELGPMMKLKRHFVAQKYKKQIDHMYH

ACSL5 = target: T2, ACSL5 (Rattus norvegicus, UniProt O88813); settings: cited from earlier work
T2 sequence (O88813 1-683): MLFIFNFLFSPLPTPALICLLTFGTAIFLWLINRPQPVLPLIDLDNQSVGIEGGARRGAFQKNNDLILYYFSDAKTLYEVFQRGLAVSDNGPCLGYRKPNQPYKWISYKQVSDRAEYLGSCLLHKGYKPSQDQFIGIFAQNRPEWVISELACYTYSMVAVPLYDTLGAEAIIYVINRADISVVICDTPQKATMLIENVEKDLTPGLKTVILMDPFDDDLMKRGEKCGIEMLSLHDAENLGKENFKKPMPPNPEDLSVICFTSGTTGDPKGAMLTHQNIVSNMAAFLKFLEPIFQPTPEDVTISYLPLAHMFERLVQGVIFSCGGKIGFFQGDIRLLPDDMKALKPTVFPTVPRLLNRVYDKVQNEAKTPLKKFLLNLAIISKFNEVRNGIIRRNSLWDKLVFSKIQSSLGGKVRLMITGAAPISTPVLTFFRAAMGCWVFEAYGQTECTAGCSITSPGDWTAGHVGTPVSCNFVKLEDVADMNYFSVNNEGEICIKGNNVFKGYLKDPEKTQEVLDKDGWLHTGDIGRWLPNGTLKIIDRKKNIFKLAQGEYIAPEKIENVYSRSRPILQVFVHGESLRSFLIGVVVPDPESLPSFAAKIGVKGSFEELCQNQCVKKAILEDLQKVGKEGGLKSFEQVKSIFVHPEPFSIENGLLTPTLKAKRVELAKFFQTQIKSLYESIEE

cardiolipin = settings: cited from earlier work
ACSL4 = ACSL4 (Rattus norvegicus, UniProt O35547); settings: cited from earlier work
[1] = tested on: lung (NCI-H23) cancer cell line; settings: cited from earlier work
ACSL1 = target: T3, ACSL1 (Rattus norvegicus, UniProt P18163); settings: cited from earlier work
T3 sequence (P18163 1-699): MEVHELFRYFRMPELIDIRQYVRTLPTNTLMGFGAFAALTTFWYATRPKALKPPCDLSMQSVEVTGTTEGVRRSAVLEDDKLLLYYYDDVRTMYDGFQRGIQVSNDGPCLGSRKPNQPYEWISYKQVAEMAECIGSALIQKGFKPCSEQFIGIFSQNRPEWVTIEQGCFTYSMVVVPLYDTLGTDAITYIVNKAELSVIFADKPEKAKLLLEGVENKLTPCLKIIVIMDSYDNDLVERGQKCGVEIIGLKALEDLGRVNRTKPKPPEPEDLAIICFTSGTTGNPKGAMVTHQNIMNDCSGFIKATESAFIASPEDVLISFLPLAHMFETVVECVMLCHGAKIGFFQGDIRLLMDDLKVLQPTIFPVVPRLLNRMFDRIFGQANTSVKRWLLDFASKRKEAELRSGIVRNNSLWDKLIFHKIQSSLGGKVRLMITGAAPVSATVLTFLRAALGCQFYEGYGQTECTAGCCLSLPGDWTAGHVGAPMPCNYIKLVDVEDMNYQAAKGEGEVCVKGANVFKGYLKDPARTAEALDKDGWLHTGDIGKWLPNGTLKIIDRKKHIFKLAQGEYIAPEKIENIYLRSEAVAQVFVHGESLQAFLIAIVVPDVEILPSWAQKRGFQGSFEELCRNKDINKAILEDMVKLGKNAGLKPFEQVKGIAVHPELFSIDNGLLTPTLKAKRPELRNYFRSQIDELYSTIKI

ACSL6 = target: T4, ACSL6 (Rattus norvegicus, UniProt P33124); settings: cited from earlier work
T4 sequence (P33124 1-697): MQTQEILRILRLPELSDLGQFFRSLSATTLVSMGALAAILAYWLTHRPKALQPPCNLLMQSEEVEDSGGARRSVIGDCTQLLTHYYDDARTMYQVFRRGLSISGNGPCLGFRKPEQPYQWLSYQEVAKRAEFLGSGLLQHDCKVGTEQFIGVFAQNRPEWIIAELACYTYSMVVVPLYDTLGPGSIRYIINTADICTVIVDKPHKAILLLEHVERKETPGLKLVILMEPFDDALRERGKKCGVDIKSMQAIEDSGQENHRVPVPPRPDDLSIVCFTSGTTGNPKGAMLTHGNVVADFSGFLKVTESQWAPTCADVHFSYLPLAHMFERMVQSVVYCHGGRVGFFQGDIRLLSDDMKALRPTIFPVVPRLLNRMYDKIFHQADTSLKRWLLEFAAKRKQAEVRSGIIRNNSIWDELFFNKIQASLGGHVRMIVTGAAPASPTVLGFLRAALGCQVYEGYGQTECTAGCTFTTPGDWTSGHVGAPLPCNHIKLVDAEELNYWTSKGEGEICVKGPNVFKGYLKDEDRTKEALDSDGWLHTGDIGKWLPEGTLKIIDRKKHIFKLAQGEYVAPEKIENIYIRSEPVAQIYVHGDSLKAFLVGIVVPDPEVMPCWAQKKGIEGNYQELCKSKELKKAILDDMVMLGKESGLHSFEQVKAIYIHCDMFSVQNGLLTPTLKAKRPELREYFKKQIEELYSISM

ACSVL5 (FATP4) = ACSVL5 (FATP4) (Mus musculus, UniProt Q91VE0); settings: cited from earlier work
ACSVL1 (FATP2) = ACSVL1 (FATP2) (Homo sapiens, UniProt O14975); settings: cited from earlier work
[2] = tested on: brain (SF268) cancer cell line; settings: cited from earlier work
[3] = tested on: colon (HCT-15) cancer cell line; settings: cited from earlier work
ACSL3 = ACSL3 (Rattus norvegicus, UniProt Q63151); settings: cited from earlier work
ACSVL3 mRNA = assay: Transient ACSVL3 KD in U87 cells, ACSVL3 expression by immunofluorescence and Western blot; assay type: cell-based, human; settings: day 3 post-transfection, indirect immunofluorescence and Western blot
Procedure: Transient ACSVL3 KD. Four different small interfering RNA (siRNA) constructs targeting different regions of ACSVL3 mRNA were produced using the pSilencer™ kit (Applied Biosystems/Ambion; Austin Tex.). U87 cells were transfected with each construct using siPORT™ Lipid reagent (Applied Biosystems/Ambion). ACSVL3 expression was assessed on day 3 post-transfection by indirect immunofluorescence and Western blot and found to be decreased by siRNA ACSVL3-3 and -4, but not -1 or -2 (data not shown). siRNA ACSVL3-3 (5′-CACGGCTCGCGGCGCTTTA-3′ (SEQ ID NO: 1)) targets by 394-412 of ACSVL3 mRNA and ACSVL3-4 (5′-CGTCTATGGAGTCACTGTG-3′ (SEQ ID NO: 2)) targets by 1861-1879. Transient ACSVL3 KD in Mayo-22 cells was achieved by transfection with ACSVL3-3 using siPORT™ Lipid reagent. Control cells received siRNA with a scrambled nucleotide sequence (supplied by Ambion).
Immunohistochemistry, immunofluorescence, and Western blotting. […] ACSVL3 was detected on Western blots with SuperSignal West Pico chemiluminescent substrate (Pierce Biotechnology, Rockford Ill.). Total and phospho-Akt (ser473) were detected with antibodies from BD Biosciences (San Jose Calif.) and Cell Signaling Technology (Danvers Mass.), respectively, and quantitated with the LiCOR Odyssey dual wavelength infrared system. Protein was determined by the method of Lowry et al. (16).

Chain of ACSL3 (Q63151 whole entry): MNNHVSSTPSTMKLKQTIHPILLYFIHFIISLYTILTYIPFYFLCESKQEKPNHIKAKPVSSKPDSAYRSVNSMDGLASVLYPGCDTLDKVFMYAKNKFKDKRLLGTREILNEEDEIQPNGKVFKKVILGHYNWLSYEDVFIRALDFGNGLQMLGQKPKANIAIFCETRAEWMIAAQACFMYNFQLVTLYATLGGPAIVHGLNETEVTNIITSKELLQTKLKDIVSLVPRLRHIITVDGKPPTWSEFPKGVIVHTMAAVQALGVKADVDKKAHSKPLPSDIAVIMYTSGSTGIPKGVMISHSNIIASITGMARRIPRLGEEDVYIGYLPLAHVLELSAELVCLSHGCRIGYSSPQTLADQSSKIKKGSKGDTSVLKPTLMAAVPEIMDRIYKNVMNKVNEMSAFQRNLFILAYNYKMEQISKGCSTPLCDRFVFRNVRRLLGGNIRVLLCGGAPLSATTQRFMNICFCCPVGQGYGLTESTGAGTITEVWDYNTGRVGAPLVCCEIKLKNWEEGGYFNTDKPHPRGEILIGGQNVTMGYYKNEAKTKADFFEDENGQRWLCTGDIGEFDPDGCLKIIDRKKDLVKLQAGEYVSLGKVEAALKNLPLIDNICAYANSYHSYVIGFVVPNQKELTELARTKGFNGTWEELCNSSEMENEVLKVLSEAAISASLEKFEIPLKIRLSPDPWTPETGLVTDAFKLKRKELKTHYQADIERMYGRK
Chain of ACSL4 (O35547 whole entry): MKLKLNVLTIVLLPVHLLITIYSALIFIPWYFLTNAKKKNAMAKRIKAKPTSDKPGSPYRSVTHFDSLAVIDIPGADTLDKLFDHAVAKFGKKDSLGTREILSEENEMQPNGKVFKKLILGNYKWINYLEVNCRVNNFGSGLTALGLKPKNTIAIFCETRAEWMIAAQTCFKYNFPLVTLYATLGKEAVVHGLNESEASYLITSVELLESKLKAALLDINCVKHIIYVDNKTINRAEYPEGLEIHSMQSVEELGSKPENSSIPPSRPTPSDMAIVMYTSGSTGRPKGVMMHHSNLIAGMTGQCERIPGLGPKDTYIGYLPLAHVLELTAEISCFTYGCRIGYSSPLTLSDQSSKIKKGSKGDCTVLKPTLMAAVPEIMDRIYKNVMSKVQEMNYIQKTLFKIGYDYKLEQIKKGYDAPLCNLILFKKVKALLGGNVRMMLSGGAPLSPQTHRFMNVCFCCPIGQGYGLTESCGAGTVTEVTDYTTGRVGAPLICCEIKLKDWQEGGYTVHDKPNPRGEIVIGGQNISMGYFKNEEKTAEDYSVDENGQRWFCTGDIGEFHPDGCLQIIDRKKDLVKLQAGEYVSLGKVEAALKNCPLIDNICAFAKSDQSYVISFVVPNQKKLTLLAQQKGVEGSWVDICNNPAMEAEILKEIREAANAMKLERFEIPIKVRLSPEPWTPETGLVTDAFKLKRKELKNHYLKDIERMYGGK
Chain of ACSVL5 (FATP4) (Q91VE0 whole entry): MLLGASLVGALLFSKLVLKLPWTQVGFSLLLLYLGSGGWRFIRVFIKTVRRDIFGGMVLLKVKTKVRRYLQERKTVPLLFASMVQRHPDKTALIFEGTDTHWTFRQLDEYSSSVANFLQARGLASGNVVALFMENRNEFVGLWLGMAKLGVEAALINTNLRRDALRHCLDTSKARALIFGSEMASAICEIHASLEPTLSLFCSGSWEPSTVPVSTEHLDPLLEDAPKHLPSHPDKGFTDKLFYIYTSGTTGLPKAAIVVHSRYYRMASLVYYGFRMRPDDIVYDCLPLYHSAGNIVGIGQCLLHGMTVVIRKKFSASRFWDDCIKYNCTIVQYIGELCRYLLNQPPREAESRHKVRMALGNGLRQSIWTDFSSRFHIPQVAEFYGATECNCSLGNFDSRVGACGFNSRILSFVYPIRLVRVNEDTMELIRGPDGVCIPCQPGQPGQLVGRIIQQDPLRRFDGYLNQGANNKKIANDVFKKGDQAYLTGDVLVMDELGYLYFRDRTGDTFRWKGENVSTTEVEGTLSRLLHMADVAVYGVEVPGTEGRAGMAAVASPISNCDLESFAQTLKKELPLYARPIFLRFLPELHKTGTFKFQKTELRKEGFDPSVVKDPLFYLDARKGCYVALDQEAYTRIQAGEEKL
Chain of ACSVL1 (FATP2) (O14975 whole entry): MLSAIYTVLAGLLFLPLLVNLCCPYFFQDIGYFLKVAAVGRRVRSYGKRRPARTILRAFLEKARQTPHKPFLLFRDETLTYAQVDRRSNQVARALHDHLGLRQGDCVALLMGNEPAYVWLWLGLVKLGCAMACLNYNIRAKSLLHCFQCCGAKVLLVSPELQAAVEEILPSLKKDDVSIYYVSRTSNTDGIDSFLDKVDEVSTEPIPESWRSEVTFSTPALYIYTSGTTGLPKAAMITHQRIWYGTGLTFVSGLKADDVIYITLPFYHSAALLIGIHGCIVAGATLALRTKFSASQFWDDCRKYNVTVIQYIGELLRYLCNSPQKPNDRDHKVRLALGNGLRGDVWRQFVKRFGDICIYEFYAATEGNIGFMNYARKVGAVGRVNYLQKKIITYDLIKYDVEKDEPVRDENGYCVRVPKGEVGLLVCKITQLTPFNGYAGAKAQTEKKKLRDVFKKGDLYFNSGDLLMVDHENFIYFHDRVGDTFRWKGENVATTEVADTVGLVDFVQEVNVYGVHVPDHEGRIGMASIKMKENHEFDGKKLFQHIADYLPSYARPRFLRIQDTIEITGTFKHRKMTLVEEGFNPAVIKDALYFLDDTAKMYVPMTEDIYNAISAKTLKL

Row | Molecule | inhibition of ACSBG2 (ACSBG2) | inhibition of ACSL5 (ACSL5) | mitochondrial level of cardiolipin (cardiolipin) | inhibition of ACSL4 (ACSL4) | caspase activity [1] | inhibition of ACSL1 (ACSL1) | inhibition of ACSL6 (ACSL6) | inhibition of ACSVL5 (FATP4) (ACSVL5 (FATP4)) | inhibition of ACSVL1 (FATP2) (ACSVL1 (FATP2)) | caspase activity [2] | caspase activity [3] | inhibition of ACSL3 (ACSL3) | ACSVL3 expression (ACSVL3 mRNA)
1 | CCC/C=C/C/C=C/C=C/C=N/NN=O [triacsin c] | does not inhibit | does not inhibit | decreased | inhibits | induced caspase activity | inhibits | does not inhibit | does not inhibit | inhibits | induced caspase activity | induced caspase activity | inhibits | 
2 | siRNA ACSVL3-4: siRNA 5′-CGTCTATGGAGTCACTGTG-3′ (SEQ ID NO: 2), targets 1861-1879 of ACSVL3 mRNA (listed as DNA, chemistry not given here) |  |  |  |  |  |  |  |  |  |  |  |  | decreased
